According to patent US20240424019A1, “SHP1 MODIFIED DENDRITIC CELLS AND EXTRACELLULAR VESICLES DERIVED THEREFROM AND ASSOCIATED METHODS” (BOARD OF REGENTS, THE UNIVERSITY OF TEXAS SYSTEM, priority 2021, published 2024):

Legend:
[1] = test system: Scarb1-/-DCs; test: BMDCs from Scarb1-/- versus wild-type mice; assay type: cell-based, mouse
From the text: VitE can enter enterocytes via the SCARB1 receptor, and SCARB1 facilitates the uptake of cholesteryl esters from high-density lipoproteins. […] To determine whether SCARB1 is required for VitE-induced DC activation, we generated BMDCs from Scarb1-/-versus wild-type mice. […] Taken together, VitE enters DCs via SCARB1 and binds SHP1 to inhibit pSHP1, leading to DC activation, which increases antitumor T-cell immunity (data not shown; see Yuan et al. 2022, FIG. 4I; see also U.S. Provisional Application No. 63/252,721, FIG. 4D).

[2] = test system: OT-1 T cells; test: OT-1 T cell proliferation with OVA-loaded BMDCs; assay type: cell-based, mouse; settings: VitE-treated, OVA-loaded BMDCs vs vehicle, day 3
Procedure: FIG. 2A: Percentage of human IFN-γ^+CD8^+ T cells in CD8^+ T cells in coculture with vehicle or VitE-treated autologous MoDCs (n=3). FIG. 2B: Representative flow cytometric analysis and quantification of antigen-specific OT-1 T cell proliferation stimulated with OVA-loaded mouse BMDCs that were treated with vehicle or VitE at day 3. FIG. 2C: Tumor growth curves of orthotopic EMT6 tumor-bearing mice treated with vehicle (Ctrl), Vitamin E (VitE), or VitE plus Cyt c (10 mg/kg. i.v, every other day starting on day 3) to deplete DCs (n=8/group). The statistical significance is defined by P-value: *P<0.05, **P<0.01, ***P<0.001. ****P<0.0001.
FIG. 3A: Volcano plot of reverse phase protein array (RPPA) data of mouse BMDCs treated with VitE (50 μg/ml) compared to those treated with vehicle control with tumor conditioned media (TCM) for 48 hours (n=3 independent samples). […] The grey dashed line indicates P-value of 0.05. FIG. 3B: t-SNEs by CyTOF and quantification comparing the intensity of pY564-SHP1 in TADCs from the vehicle-or VitE-treated EMT6 tumors at day 15 post-implantation. FIG. 3C: Top, SHP1 knockdown in BMDCs was effective. […] Right, quantification of OT-1 T-cell numbers under the indicated condition. FIG. 3D: The binding of VitE to purified SHP1 is analyzed by microscale thermophoresis (MST) binding assay. […]

Cc1c(C)c2c(c(C)c1O)CC[C@@](C)(CCC[C@H](C)CCC[C@H](C)CCCC(C)C)O2 [VitE, D-α-Tocopherol]
pY564-SHP1 in Scarb1-/- DCs ([1]; VitE treatment, unlike wild-type DCs): failed to inhibit pY564-SHP1 | proliferation of cocultured T cells ([1]; VitE-treated Scarb1-/- DCs, in contrast to wild-type DCs): did not induce proliferation of cocultured T cells | antigen-specific OT-1 T cells in coculture [2]: increased the OVA-derived SIINFEKL antigen-specific OT-1 T cells in coculture
